Values after ≈ are worked out from the molar mass of the structure shown.
What was measured:
Type in all cases: cell-based
[1] = test system: Enterococcus hirae ATCC 10541; assay: Minimum inhibitory concentration (MIC), further microorganisms; conditions: Table 8; * = significant inhibition of growth, but not complete inhibition
Protocol: (§1) Determination of the Minimum Inhibitory Concentration (MIC Value) in Microtitre Plates
(§2) Casein-soybean flour-peptone broth for preparation of pre-cultures of test bacteria and yeast.
(§3) Mycological slant agar for the pre-culture of moulds
(§4) The test substances are pre-dissolved in dimethyl sulfoxide (DMSO) and tested in a dilution series of 1:2.
(§5) Bacteria and yeast are cultured overnight in CASO broth, the mould is cultured overnight on mycological slant agar, and washed off using 10 ml of 0.85% sodium chloride solution (+0.1% Triton X-100).
(§6) All the test organisms are adjusted to an organism count of 1–5×10^6 CFU/ml using 0.85% sodium chloride solution.
(§7) The test substances are pre-pipetted into microtitre plates in amounts of 8 μl per well.
(§8) Pre-diluted organism suspensions are diluted 1:100 in CASO broth (bacteria and yeast) or Sabouraud 2% glucose broth (mould) and are added in amounts of 192 μl per well to the test substances.
(§9) The test batches are incubated for 48 hours at 37° C. (bacteria and yeast) or for 5 days at 28° C. (mould).
(§10) After incubation, the growth is determined on the basis of the turbidity of the test batches (optical density) at 620 nm in a microplate reader.
(§11) The minimum inhibitory concentration (MIC value) is the concentration of substance at which there is found (compared to the growth of the control) an appreciable inhibition of growth (≦20% growth) of the test organisms.
(§12) One microtitre plate is used for each test organism and substance concentration. All the substances are tested in duplicate.

[2] = test system: Staphylococcus aureus ATCC 9144; assay: as above; conditions: Table 8; * = significant inhibition of growth, but not complete inhibition
Protocol: as §1, §2, §3, §4, §5, §6, §7, §8, §9, §10, §11, §12

[3] = test system: Trichophyton mentagrophytes ATCC 9533; assay: as above; conditions: Table 8; * = significant inhibition of growth, but not complete inhibition
Protocol: as §1, §2, §3, §4, §5, §6, §7, §8, §9, §10, §11, §12

[4] = test system: Micrococcus luteus ATCC 9341; assay: as above; conditions: Table 8; * = significant inhibition of growth, but not complete inhibition
Protocol: as §1, §2, §3, §4, §5, §6, §7, §8, §9, §10, §11, §12

[5] = test system: Klebsiella pneumonia ATCC 4352; assay: as above; conditions: Table 8; * = significant inhibition of growth, but not complete inhibition
Protocol: as §1, §2, §3, §4, §5, §6, §7, §8, §9, §10, §11, §12

[6] = test system: Pseudomonas aeruginosa CIP A-22; assay: as above; conditions: Table 8
Protocol: as §1, §2, §3, §4, §5, §6, §7, §8, §9, §10, §11, §12

[7] = test system: Candida albicans ATCC 10231; assay: as above; conditions: Table 8; * = significant inhibition of growth, but not complete inhibition
Protocol: as §1, §2, §3, §4, §5, §6, §7, §8, §9, §10, §11, §12

[8] = test system: Salmonella choleraesuis ATCC 10708; assay: as above; conditions: Table 8
Protocol: as §1, §2, §3, §4, §5, §6, §7, §8, §9, §10, §11, §12

[9] = test system: Aspergillus niger ATCC 6275; assay: as above; conditions: Table 8; * = significant inhibition of growth, but not complete inhibition
Protocol: as §1, §2, §3, §4, §5, §6, §7, §8, §9, §10, §11, §12

[10] = test system: Epidermophyton floccosum DSM 10709; assay: as above; conditions: Table 8; * = significant inhibition of growth, but not complete inhibition
Protocol: as §1, §2, §3, §4, §5, §6, §7, §8, §9, §10, §11, §12

[11] = test system: S. epidermidis ATCC 12228; assay: as above; conditions: Table 8; * = significant inhibition of growth, but not complete inhibition
Protocol: as §1, §2, §3, §4, §5, §6, §7, §8, §9, §10, §11, §12

[12] = test system: Staphylococcus hominis DMS 20328; assay: Minimum inhibitory concentration (MIC) in microtitre plates; conditions: Table 7; 48 hours at 37° C.; MIC = ≦20% growth compared to control
Procedure, shortened: (§13)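 Compounds in DMSO, 1:2 dilution series; bacteria at 1–5×10^6 CFU/ml diluted 1:100 in CASO broth. Incubation 48 h at 37° C, growth read as OD 620 nm. MIC is the lowest concentration giving ≤20% growth relative to control; duplicates.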

[13] = test system: Escherichia coli NCTC 8196; assay: as above; conditions: for Minimum inhibitory concentration (MIC) E. coli: Table 7, 48 hours at 37° C., MIC = ≦20% growth compared to control; for Minimum inhibitory concentration (MIC) E. coli NCTC 8196: Table 8, * = significant inhibition of growth, but not complete inhibition
Procedure, shortened: as §13

Structure (SMILES)	Minimum inhibitory concentration (MIC) Enterococcus hirae ATCC 10541 [1]	Minimum inhibitory concentration (MIC) Staphylococcus aureus ATCC 9144 [2] [µg/mL]	Minimum inhibitory concentration (MIC) Trichophyton mentagrophytes ATCC 9533 [3]	Minimum inhibitory concentration (MIC) Micrococcus luteus ATCC 9341 [4]	Minimum inhibitory concentration (MIC) Klebsiella pneumonia ATCC 4352 [5]	Minimum inhibitory concentration (MIC) Pseudomonas aeruginosa CIP A-22 [6] [µg/mL]	Minimum inhibitory concentration (MIC) Candida albicans ATCC 10231 [7]	Minimum inhibitory concentration (MIC) Salmonella choleraesuis ATCC 10708 [8] [µg/mL]	Minimum inhibitory concentration (MIC) Aspergillus niger ATCC 6275 [9]	Minimum inhibitory concentration (MIC) Epidermophyton floccosum DSM 10709 [10] [µg/mL]	Minimum inhibitory concentration (MIC) S. epidermidis ATCC 12228 [11]	Minimum inhibitory concentration (MIC) S. hominis [12] [µg/mL]	Minimum inhibitory concentration (MIC) E. coli [13] [µg/mL]	Minimum inhibitory concentration (MIC) E. coli NCTC 8196 [13] [µg/mL]
CCCCCCCCCCCCCCCNc1cc(C)nc(-c2ccccn2)n1 [compound 93]	15 µg/mL (≈ 37.8 µM)	15 (≈ 37.8 µM)	>60 µg/mL	1.9 µg/mL (≈ 4.79 µM)	>120 µg/mL	>120	*120 μg/mL	>120	>60 µg/mL	>60	7.5 µg/mL (≈ 18.9 µM)	7.5 (≈ 18.9 µM)	>120	>120
CCc1c(C)nc(-c2ccccn2)nc1NCCCCCCCCCCCCN [compound 7]	>60 µg/mL	>60	>30 µg/mL	>60 µg/mL	>60 µg/mL	>60	>60 µg/mL	>60	>30 µg/mL	>30	>60 µg/mL	120 (≈ 302 µM)	120 (≈ 302 µM)	>60
Cc1nc(-c2ccccn2)nc(NCCCCCCCCN)c1C(C)C [compound 65]	>60 µg/mL	>60	>60 µg/mL	>60 µg/mL	>60 µg/mL	>60	>60 µg/mL	>60	>60 µg/mL	>60	>60 µg/mL	30 (≈ 84.4 µM)	120 (≈ 338 µM)	>60
CCCCCCCCNc1nc(-c2ccccn2)nc(C)c1C(C)C [compound 69]	3.75 µg/mL (≈ 11 µM)	7.5 (≈ 22 µM)	*15 μg/mL	<3.75 µg/mL	*60 μg/mL	>60	60 µg/mL (≈ 176 µM)	>60	*60 μg/mL	15 (≈ 44.1 µM)	7.5 µg/mL (≈ 22 µM)	3.75 (≈ 11 µM)	120 (≈ 352 µM)	>60
CCCCCCCCCCCNc1cc(C)nc(-c2ccccn2)n1 [compound 92]	3.75 µg/mL (≈ 11 µM)	3.75 (≈ 11 µM)	15 µg/mL (≈ 44.1 µM)	<0.5 µg/mL	120 µg/mL (≈ 352 µM)	>120	15 µg/mL (≈ 44.1 µM)	>120	*60 μg/mL	15 (≈ 44.1 µM)	*1.9 μg/mL	3.75 (≈ 11 µM)	>120	>120
CC(C)c1cc(NCCCCCCCCCN)nc(-c2ccccn2)n1 [compound 42]	>60 µg/mL	60 (≈ 169 µM)	>60 µg/mL	*15 μg/mL	>60 µg/mL	>60	>60 µg/mL	>60	>60 µg/mL	>60	60 µg/mL (≈ 169 µM)	30 (≈ 84.4 µM)	120 (≈ 338 µM)	>60
CCCCCCCCCCCCNc1cc(C)nc(-c2ccccn2)n1 [compound 24]	*15 μg/mL	<3.75	>60 µg/mL	<3.75 µg/mL	>60 µg/mL	>60	30 µg/mL (≈ 84.6 µM)	>60	>60 µg/mL	60 (≈ 169 µM)	3.75 µg/mL (≈ 10.6 µM)	2.5 (≈ 7.05 µM)	80 (≈ 226 µM)	>60

From patent US7015228B2, “4-amino-2-(2-pyridyl)pyrimidines as microbicidal active substances” (Ciba Specialty Chemicals Corporation, priority 2001, dated 2006)
